Assay results as given in publication PMC11079024, “Identification of a family of species-selective complex I inhibitors as potential anthelmintics” (Nature Communications, 2024).
Read-outs that look alike come from different tables or passages of the source.

What was measured:
L1 wild-type C. elegans [1] = assay: whole plant or invertebrate; settings: Caenorhabditis elegans, 15 h, read-out: C. elegans KCN Survival Assay LC50
[2] = system: ben-1 mutant (ECA882) C. elegans; assay: microbe, parasite or virus in culture; settings: Caenorhabditis elegans
Summary of the method: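 L1 larvae (~2 worms/μL in M9) in liquid NGM with 2-fold concentrated E. coli HB101, compound at 1% DMSO, 6 days at 20 °C shaking 165 rpm. Well images scored as summed worm-associated pixels, normalized to DMSO controls; relative viability averaged over at least three biological replicates.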

L1 wild-type C. elegans [3] = settings: for KCN survival assay value relative to DMSO control, Mean: mean of replicates
in vitro = settings: human; for viability at 2 days, 3.13 µM / viability at 2 days, 6.25 µM / viability at 2 days, 12.5 µM / viability at 2 days, 25 µM / viability at 2 days, 50 µM / viability at 2 days, 100 µM: HEK293 cells (Flp-In-293); for viability at 2 days, 3.13 µM / viability at 2 days, 6.25 µM / viability at 2 days, 12.5 µM / viability at 2 days, 25 µM / viability at 2 days, 50 µM / viability at 2 days, 100 µM / viability: HEK293 viability
L1 wild-type C. elegans [4] = assay: microbe, parasite or virus in culture; settings: Caenorhabditis elegans
[5] = read-out: C. elegans (ben-1) Development & Viability Assay LC50
[6] = read-out: C. elegans ben-1(e1880) development/viability
[7] = read-out: C. elegans ben-1 log10 LC50 (converted)
[8] = 50 μM, […], KCN survival assay, hit = relative motility below 0.25
[9] = Dose 0.2 µM, mean of at least three biological replicates
[10] = HEK293 Cell Viability Assay LC50, HEK293 cells, estimated from fitted dose-response curves, mean of at least two biological replicates
[11] = read-out: C. elegans KCN Survival Assay LC50, estimated from fitted dose-response curves, mean of at least two biological replicates
[12] = HEK293 Cell Viability Assay LC50, 2 days exposure

## CC(C)(C)c1ccc(CCOc2ncnc3ccccc23)cc1 [Fenazaquin, reference compound]
L1 wild-type C. elegans [1]
  LC50: 0.5 µM

## Cc1ccccc1OCCCCn1cnc2ccccc21 [Compound 7732524]
[2]; [5]
  LC50: 58.5 µM
[2]; [6]
  viability at 15.6 µM: 100%
  viability at 31.3 µM: 97%
  viability at 62.5 µM: 42.4%
  viability at 125 µM: 3.7%
  viability at 250 µM: 3.3%
  viability at 500 µM: 1.6%
  viability at 1000 µM: 1.3%
[2]; [7]
  LC50: 58.5 µM
L1 wild-type C. elegans [3]; [8]
  Screen "Hit": Y (hits were identified as compounds that reduced relative motility below 0.25 (75% reduction))
L1 wild-type C. elegans [3]; [9]
  C. elegans KCN Survival: 1.002
L1 wild-type C. elegans [3]; Dose 0.39 µM
  C. elegans KCN Survival: 0.963
L1 wild-type C. elegans [3]; Dose 1.56 µM
  C. elegans KCN Survival: 0.887
L1 wild-type C. elegans [3]; Dose 3.13 µM
  C. elegans KCN Survival: 0.828
L1 wild-type C. elegans [3]; Dose 6.25 µM
  C. elegans KCN Survival: 0.509
L1 wild-type C. elegans [3]; Dose 12.5 µM
  C. elegans KCN Survival: 0.007
L1 wild-type C. elegans [3]; Dose 25 µM
  C. elegans KCN Survival: 0.000
L1 wild-type C. elegans [3]; Dose 50 µM
  C. elegans KCN Survival: 0.000
L1 wild-type C. elegans [3]; Dose 100 µM
  C. elegans KCN Survival: 0.000
In vitro; [10]
  CC50 at 2 days: 49.9 µM
In vitro
  viability at 2 days, 3.13 µM: 100%
  viability at 2 days, 6.25 µM: 100%
  viability at 2 days, 12.5 µM: 100%
  viability at 2 days, 25 µM: 93.2%
  viability at 2 days, 50 µM: 48.1%
  viability at 2 days, 100 µM: 13.7%
L1 wild-type C. elegans [1]
  LC50: 6.4 µM
L1 wild-type C. elegans [4]; [11]
  LC50: 6.37 µM

## COc1cc2c(cc1OC)C(/C=C/c1ccc(N(C)C)cc1)=NCC2 [NPD6303]
In vitro; [12]
  CC50 at 2 days: 33.4 µM
L1 wild-type C. elegans [1]
  LC50: 32.2 µM

## Cc1nc2ccccc2n1Cc1ccc(Cl)cc1 [STK697993]
[2]; [5]
  LC50: 40.1 µM
[2]; [7]
  LC50: 40.1 µM
L1 wild-type C. elegans [3]; 50 μM compound, […], hit = relative motility below 0.25 3 hours after removal of KCN
  Screen "Hit": Y (hits were identified as compounds that reduced relative motility below 0.25 (75% reduction))
L1 wild-type C. elegans [3]; 50 μM compound, […], worm motility 3 hours after removal of KCN, relative to DMSO controls, single biological replicate
  Relative Motility: 0.000
L1 wild-type C. elegans [3]; dose 3.1 µM, […]
  KCN survival assay value relative to DMSO control, Mean: 1.037
L1 wild-type C. elegans [3]; dose 6.3 µM, […]
  KCN survival assay value relative to DMSO control, Mean: 1.001
L1 wild-type C. elegans [3]; dose 12.5 µM, […]
  KCN survival assay value relative to DMSO control, Mean: 0.717
L1 wild-type C. elegans [3]; dose 25 µM, […]
  KCN survival assay value relative to DMSO control, Mean: 0.059
L1 wild-type C. elegans [3]; dose 50 µM, […]
  KCN survival assay value relative to DMSO control, Mean: 0.046
In vitro; HEK293 Cell Viability Assay LC50
  CC50 at 2 days: > 100 µM
L1 wild-type C. elegans [1]
  LC50: 8.2 µM
L1 wild-type C. elegans [4]; read-out: C. elegans KCN Survival Assay LC50
  LC50: 8.18 µM

## COc1cc2c(cc1OC)C(C(C)c1ccc(CC(C)C)cc1)=NCC2 (stereo not shown) [NPD10504]
In vitro; [12]
  CC50 at 2 days: 36.6 µM
L1 wild-type C. elegans [1]
  LC50: 15.6 µM

## Cc1cc(O)c2c(c1)O[C@@]1(C)CC[C@H]3C(C)(C)CCC[C@]34CO[C@@H]2[C@H]41 [Siccanin]
L1 wild-type C. elegans [1]
  LC50: 6.3 µM

## COc1cc2c(cc1OC)C(c1ccc(-c3ccc(Cl)c(Cl)c3)o1)=NCC2 [NPD3577]
In vitro; [12]
  CC50 at 2 days: 21.4 µM
L1 wild-type C. elegans [1]
  LC50: 16 µM

## CC(C)Cc1ccc(C(C)c2nc3ccccc3n2C)cc1 (stereo not shown) [NPD8790]
[2]; [5]
  LC50: > 1000 µM
L1 wild-type C. elegans [1]
  LC50: 14.3 µM

## C=C(C)[C@H]1Cc2c(ccc3c2O[C@@H]2COc4cc(OC)c(OC)cc4[C@@H]2C3=O)O1 [Rotenone, reference compound]
L1 wild-type C. elegans [3]; N2 (wild type), caenorhabditis elegans
  LC50: 0.86 µM
In vitro
  CC50: < 0.39 µM
In vitro; dose 0.4 µM, Mean of replicates
  viability: 33.2%
In vitro; dose 0.8 µM, Mean of replicates
  viability: 34.5%
In vitro; dose 0.8 µM, individual replicate (Rep)
  viability: 37.4%
In vitro; dose 3.1 µM, Mean of replicates
  viability: 47%
In vitro; dose 3.1 µM, individual replicate (Rep)
  viability: 46.6%
In vitro; dose 6.3 µM, Mean of replicates
  viability: 32.5%
In vitro; dose 6.3 µM, individual replicate (Rep)
  viability: 30.9%
In vitro; dose 12.5 µM, Mean of replicates
  viability: 26.9%
In vitro; dose 12.5 µM, individual replicate (Rep)
  viability: 27.1%
In vitro; dose 25 µM, Mean of replicates
  viability: 21.4%
In vitro; dose 25 µM, individual replicate (Rep)
  viability: 20.1%
In vitro; dose 50 µM, Mean of replicates
  viability: 20.1%
In vitro; dose 50 µM, individual replicate (Rep)
  viability: 20.4%
L1 wild-type C. elegans [1]
  LC50: 0.8 µM

## Nc1nc2ccccc2n1Cc1ccc(Cl)cc1 [Compound 5652765]
[2]; [5]
  LC50: 71.7 µM
[2]; [6]
  viability at 1 µM: 98%
  viability at 2 µM: 94.6%
  viability at 3.9 µM: 92.8%
  viability at 15.6 µM: 89.9%
  viability at 31.3 µM: 76.1%
  viability at 62.5 µM: 63.7%
  viability at 125 µM: 13.8%
  viability at 250 µM: 7.4%
  viability at 500 µM: 6.3%
[2]; [7]
  LC50: 71.6 µM
L1 wild-type C. elegans [3]; [8]
  Screen "Hit": Y (hits were identified as compounds that reduced relative motility below 0.25 (75% reduction))
L1 wild-type C. elegans [3]; [9]
  C. elegans KCN Survival: 0.973
L1 wild-type C. elegans [3]; Dose 0.39 µM
  C. elegans KCN Survival: 1.034
L1 wild-type C. elegans [3]; Dose 1.56 µM
  C. elegans KCN Survival: 1.067
L1 wild-type C. elegans [3]; Dose 3.13 µM
  C. elegans KCN Survival: 1.051
L1 wild-type C. elegans [3]; Dose 6.25 µM
  C. elegans KCN Survival: 1.001
L1 wild-type C. elegans [3]; Dose 12.5 µM
  C. elegans KCN Survival: 0.758
L1 wild-type C. elegans [3]; Dose 25 µM
  C. elegans KCN Survival: 0.271
L1 wild-type C. elegans [3]; Dose 50 µM
  C. elegans KCN Survival: 0.140
L1 wild-type C. elegans [3]; Dose 100 µM
  C. elegans KCN Survival: 0.216
In vitro; [10]
  CC50 at 2 days: 58.9 µM
In vitro
  viability at 2 days, 3.13 µM: 94.2%
  viability at 2 days, 6.25 µM: 94%
  viability at 2 days, 12.5 µM: 92.9%
  viability at 2 days, 25 µM: 94.5%
  viability at 2 days, 50 µM: 62.3%
  viability at 2 days, 100 µM: 10%
L1 wild-type C. elegans [4]; [11]
  LC50: 16.9 µM

## Cc1ccc(Cn2c(C)nc3ccccc32)cc1 [Compound 5651984]
[2]; [5]
  LC50: 108 µM
[2]; [7]
  LC50: 108 µM
L1 wild-type C. elegans [3]; [8]
  Screen "Hit": Y (hits were identified as compounds that reduced relative motility below 0.25 (75% reduction))
In vitro; [10]
  CC50 at 2 days: 95.4 µM
L1 wild-type C. elegans [4]; [11]
  LC50: 7.24 µM
